Measured values: patent US5843941A, “Ras farnesyl transferase inhibitors” (Genentech, Inc., priority 1994, dated 1998)
Like-named read-outs stand apart in the source and are kept apart here.

Tests used:
[1] = tested on: farnesylated proteins F1, F2 and F3 in Met18b-2 cells; assay: Inhibition of intracellular farnesylation in intact Met18b-2 cells, Triton-soluble proteins F1, F2, F3; type: cell-based, Chinese hamster; conditions: Cricetulus griseus, read-out: EC 90% "B isomer"
Description: To study farnesylation in intact cells we used Met18b-2 cells, a line of Chinese hamster ovary (CHO) cells that takes up [3H]mevalonate efficiently (see Faust, J., and Krieger, M. J. Biol. Chem. 262, 1966 (1987)) owing to the production of a mevalonate transport protein (see Kim, C. M., Goldstein, J. L., Brown, M. S. J. Biol. Chem. 267, 23113 (1992)). The [3H]mevalonate is converted by the cells into [3H]farnesyl pyrophosphate and [3H]geranylgeranyl pyrophosphate, which are then attached to proteins (Kim, C. M., Goldstein, J. L., Brown, M. S. J. Biol. Chem. 267, 23113 (1992)). In the assay, stock cultures of Met18b-2 cells were seeded at a density of 3-105 cells per 60 mm dish in 3 ml of medium A (Dulbecco's modified Eagle medium/Ham's F12 medium (1:1, v/v) containing 100 U/ml penicillin and 100 μg/ml streptomycin) supplemented with 5% (v/v) fetal calf serum (FCS). On day 3, each monolayer was refed with 1 ml medium A supplemented with 1% FCS (dialyzed against 0.15 M NaCl). At this point the cells were treated with 100 μM compactin (see Brown, M. S., Faust, J. R., Goldstein, J. L., Kaneko, I., and Endo, A. J. Biol. Chem. 253, 1121 (1978)) which blocks the synthesis of unlabeled mevalonate within the cells. Each compound was dissolved at 25 mM in DMSO/10 mM DTT immediately before use and 10 μl of this solution added directly. After 2 hr incubation at 37° C., each monolayer received 100 μCi [3H]mevalonate (60 Ci/mmol, American Radiolabeled Chemicals, Inc.) added in 100 μl of the medium A, and the incubation continued for 4 hr. The cells were harvested by rinsing three times with 3 ml of 50 mM Tris-HCl/0.15 M NaCl (pH 7.5). 300 μl of lysis buffer (0.5X Dulbecco's phosphate-buffered saline containing 1% Triton X-100, 5 μg/ml leupeptin, 5 μg/ml pepstatin, 0.5 mM phenylmethylsulfonyl fluoride, and 0.05 U/ml aprotinin) was added to each monolayer. After incubation on ice for 5 mon, the lysates were centrifuged 30 sec in a microfuge at 12,000 g. The resulting supernatant was tranferred to a new tube, and each pellet was resuspended in 60 μl of lysis buffer. Protein concentrations were determined using the BCA protein assay reagent (Pierce) according to the manufacturer's instructions. Detergent-soluble (supernatant) and -insoluble (pellet) samples were mixed with 2X SDS sample buffer (see Laemmli, U. K. Nature 227, 680 (1970)) and heated at 95° C. for 5 min before electrophoresis. Each lane contained 90 μg protein, and was run on a 12.5% SDS-polyacrylamide gel. The gel was dried, treated with ENTENSIFY (NEN-DuPont), and exposed to Kodak XOMAT-AR film for 9 h at -80° C. to allow visualization of all prenylated proteins. Migration of [14C]methylated molecular weight standards (Amersham) were used as markers.
The results of this assay are shown in FIG. 3, using a final concentration of 250 μM for each inhibitor. […] As shown in the figure, none of the control peptides or control benzodiazepine-peptideomimetics altered the prenylation of proteins in intact cells.
Using the same cells and procedures followed above for Example 125, we measured the dose dependence upon the inhibition of farnesylation in intact cells. […] Compound 37B inhibited the famesylation of F1-3 detectably at 10 μM, and almost completely at 25 μM.
In this manner, it is possible to obtain data regarding the comparative potency of these inhibitors upon the level of intracellular farnesylation. We have chosen to report the EC90% values for these inhibitors as the concentration required for a reduction in the Triton- soluble labelling (denoted F-1, F-2, and F-3) to 90% of control cells (untreated).

[2] = biological target: CAAX farnesyltransferase (Rattus norvegicus, UniProt Q02293+Q04631); assay: In vitro inhibition of CAAX farnesyltransferase; type: biochemical; design: purified to homogeneity from rat brain homogenates; from tissue; host or cells: rat brain; alternatively recombinant enzyme from a baculovirus expression system; conditions: Table D
In short: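 Native or recombinant (baculovirus-infected cells, Q-Sepharose purified) farnesyltransferase incubated 30 min at 37 °C. [3H]farnesyl transfer to p21H-ras measured by SDS/trichloroacetic acid precipitation, nitrocellulose filtration and scintillation counting.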

[3] = diastereomer A, read-out: EC50 (μM) "A"
[4] = diastereomer B, read-out: EC50 (μM) "B"

CAAX farnesyltransferase, sequence (Q02293 whole entry, one chain of several): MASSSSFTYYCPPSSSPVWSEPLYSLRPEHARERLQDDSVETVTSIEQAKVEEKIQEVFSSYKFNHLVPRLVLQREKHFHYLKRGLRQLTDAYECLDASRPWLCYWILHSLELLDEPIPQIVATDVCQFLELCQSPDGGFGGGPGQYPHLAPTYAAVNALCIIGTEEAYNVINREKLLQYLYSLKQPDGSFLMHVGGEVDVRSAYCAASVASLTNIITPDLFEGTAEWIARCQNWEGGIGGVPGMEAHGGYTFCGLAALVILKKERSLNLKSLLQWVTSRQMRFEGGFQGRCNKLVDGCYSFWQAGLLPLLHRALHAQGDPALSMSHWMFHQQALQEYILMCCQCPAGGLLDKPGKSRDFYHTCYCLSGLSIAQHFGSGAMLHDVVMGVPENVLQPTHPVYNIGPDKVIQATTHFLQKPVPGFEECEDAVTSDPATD

How did the EC90 [1] turn out when `CN(C(=O)[C@@H](N)CS)C1N=C(c2ccccc2)c2cc(Cl)ccc2N(Cc2ccc(C(F)(F)F)cc2)C1=O` (stereo partly shown) [compound 106, N-[[3-[(2-amino-3-mercapto-1-oxopropyl)methylamino]-2,3-dihydro-2-oxo-5-phenyl-7-chloro-1H-1,4-benzodiazepin-1-yl]methyl]-4-trifluoromethylbenzene] was run?
Its EC90 is 50000 nM.

And the EC50 [2, 3]?
The EC50 was 0.65 µM.

And the EC50 [2, 4]?
Its EC50 is 0.018 µM.

How did the EC90 [1] turn out when `CN(C(=O)[C@@H](N)CS)C1N=C(c2ccccc2)c2cc(Cl)ccc2N(Cc2ccc(F)cc2)C1=O` (stereo partly shown) [compound 108, N-[[3-[(2-amino-3-mercapto-1-oxopropyl)methylamino]-2,3-dihydro-2-oxo-5-phenyl-7-chloro-1H-1,4-benzodiazepin-1-yl]methyl]-4-fluorobenzene] was run?
Its EC90 is 50000 nM.

And the EC50 [2, 3]?
The EC50 was 0.0018 µM.

And the EC50 [2, 4]?
The EC50 was 0.0018 µM.

Which results are given for `CCOC(=O)[C@H](CCSC)NC(=O)CN1C(=O)C(N(C)C(=O)C2CSC(C)N2)N=C(c2ccccc2)c2ccccc21` (stereo partly drawn) [compound 109, N-[[3-[(2-methylthiazolidine-4-carboxyl)methylamino]-2,3-dihydro-2-oxo-5-phenyl-1H-1,4-benzodiazepin-1-yl]acetyl]-L-methionine ethyl ester]?
EC90 [1]: 10000 nM; EC50 [2, 3]: 3.1 µM; EC50 [2, 4]: 0.1 µM

What does the source list for `COC(=O)[C@H](CCSC)NC(=O)CN1C(=O)C(N(C)C(=O)[C@@H](N)CSSC(C)(C)C)N=C(c2ccccc2)c2ccccc21` (stereo partly drawn) [compound 110, N-[[3-[(2-amino-3-tert-butylthiomercapto-1-oxopropyl)methylamino]-2,3-dihydro-2-oxo-5-phenyl-1H-1,4-benzodiazepin-1-yl]acetyl]-L-methionine methyl ester]?
EC90 [1]: 10000 nM; EC50 [2, 3]: > 1.5 µM; EC50 [2, 4]: > 1.5 µM

For `CSCC[C@H](NC(=O)CN1C(=O)C(N(C)C(=O)[C@@H](N)CSSC(C)(C)C)N=C(c2ccccc2)c2cc(Cl)ccc21)C(=O)OC1CCCCC1` (stereo partly drawn) [compound 111, N-[[3-[(2-amino-3-tert-butylthiomercapto-1-oxopropyl)methylamino]-2,3-dihydro-2-oxo-5-phenyl-7-chloro-1H-1,4-benzodiazepin-1-yl]acetyl]-L-methionine cyclohexyl ester], which EC90 [1] is on record?
Its EC90 is 2000 nM.

And the EC50 [2, 3]?
The EC50 was greater than 3 µM.

And the EC50 [2, 4]?
Its EC50 is 1.4 µM.

For `CSCC[C@H](NC(=O)CN1C(=O)C(N(C)C(=O)[C@@H](N)CSSC(C)(C)C)N=C(c2ccccc2)c2ccccc21)C(=O)OC1CCCCC1` (stereo partly drawn) [compound 112, N-[[3-[(2-amino-3-tert-butylthiomercapto-1-oxopropyl)methylamino]-2,3-dihydro-2-oxo-5-phenyl-1H-1,4-benzodiazepin-1-yl]acetyl]-L-methionine cyclohexyl ester], which EC90 [1] is on record?
Its EC90 is 4000 nM.

What about the EC50 [2, 4] of the same molecule?
Its EC50 is 0.2 µM.

`CC(C)C[C@H](NC(=O)CN1C(=O)C(N(C)C(=O)[C@@H](N)CSSC(C)(C)C)N=C(c2ccccc2)c2cc(Cl)ccc21)c1nnn[nH]1` (stereo partly drawn) [compound 114, N-[[3-[(2-amino-3-tert-butylthiomercapto-1-oxopropyl)methylamino]-2,3-dihydro-2-oxo-5-phenyl-7-chloro-1H-1,4-benzodiazepin-4-yl]acetyl]-L-leucine tetrazole] was tested. Which EC90 [1] did it give?
Its EC90 is 30000 nM.

What about the EC50 [2, 4] of the same molecule?
Its EC50 is 0.12 µM.

What does the source list for `CN(C(=O)[C@@H](N)CSSC(C)(C)C)C1N=C(c2ccccc2)c2cc(Cl)ccc2N(CC(=O)N[C@@H](Cc2ccccc2)C(N)=O)C1=O` (stereo partly drawn) [compound 115, N-[[3-[(2-amino-3-tert-butylthiomercapto-1-oxopropyl)methylamino]-2,3-dihydro-2-oxo-5-phenyl-7-chloro-1H-1,4-benzazepin-1-yl]acetyl]-L-phenylalanine amide]?
EC90 [1]: 50000 nM; EC50 [2, 3]: > 3 µM; EC50 [2, 4]: 0.1 µM

How did the EC90 [1] turn out when `CSCC[C@H](NC(=O)CN1C(=O)C(N(C)C(=O)[C@@H](N)CSSC(C)(C)C)N=C(c2ccccc2)c2cc(Cl)ccc21)c1nnn[nH]1` (stereo partly drawn) [compound 116, N-[[3-[(2-amino-3-tert-butylthiomercapto-1-oxopropyl)methylamino]-2,3-dihydro-2-oxo-5-phenyl-7-chloro-1H-1,4-benzodiazepin-1-yl]acetyl]-L-methionine tetrazole] was run?
The EC90 was 60000 nM.

And the EC50 [2, 3]?
The EC50 was greater than 3 µM.

What about the EC50 [2, 4] of the same molecule?
Its EC50 is 0.03 µM.
